Source: PubChem BioAssay (NCI)
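Protocol summary: plate cells (96-well), add compound at 5 concentrations, incubate 48 h, interpolate endpoints linearly. GI50 marks 50% less growth. The concentration for full growth arrest is given as TGI.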

Legend:
Experiment in all cases: NCI-60 cell line screen, 48 h
NCI-H226 lung = tested on: NCI-H226 lung
A498 renal = tested on: A498 renal
UACC-257 melanoma = tested on: UACC-257 melanoma
ACHN renal = tested on: ACHN renal
SK-MEL-2 melanoma = tested on: SK-MEL-2 melanoma
SF-295 CNS = tested on: SF-295 CNS
SN12C renal = tested on: SN12C renal
SK-MEL-5 melanoma = tested on: SK-MEL-5 melanoma
MDA-MB-435 = tested on: MDA-MB-435
MCF7 breast = tested on: MCF7 breast

SMILES	TGI (NCI-H226 lung) [µM]	TGI (A498 renal) [µM]	TGI (UACC-257 melanoma) [µM]	TGI (ACHN renal) [µM]	TGI (SK-MEL-2 melanoma) [µM]	TGI (SF-295 CNS) [µM]	TGI (SN12C renal) [µM]	TGI (SK-MEL-5 melanoma) [µM]	GI50 (NCI-H226 lung) [µM]	GI50 (MDA-MB-435) [µM]	TGI (MDA-MB-435) [µM]	GI50 (A498 renal) [µM]	GI50 (UACC-257 melanoma) [µM]	GI50 (MCF7 breast) [µM]	TGI (MCF7 breast) [µM]	GI50 (ACHN renal) [µM]	GI50 (SF-295 CNS) [µM]	GI50 (SN12C renal) [µM]	GI50 (SK-MEL-5 melanoma) [µM]	GI50 (SK-MEL-2 melanoma) [µM]
COc1ccc(/C=C/c2cc(OC)c(OC)c(OC)c2)cc1OC	> 100	> 100	> 100	> 100	> 100	> 100	> 100	> 100	–	–	–	–	–	–	–	–	–	–	–	–
NC1=C(O)/C(=N/NS(=O)(=O)c2ccccc2)C(c2ccc3c(c2)OCO3)O1 (centres undefined)	> 100	> 100	> 100	> 100	> 100	> 100	> 100	> 100	–	–	–	–	–	–	–	–	–	–	–	–
O=C(N/C(=C\c1cccc([N+](=O)[O-])c1)c1nc2c3c(ccc2[nH]1)C(=O)c1ccccc1C3=O)c1ccccc1	> 100	> 100	–	> 100	> 100	–	> 100	> 100	–	–	–	–	–	–	–	–	–	–	–	–
O=[N+]([O-])c1cc(I)cc(/C=N/NS(=O)(=O)c2ccc(F)cc2)c1O	–	91.6	62.3	81.5	35.7	98.2	54.1	45.2	–	–	–	–	–	–	–	–	–	–	–	–
Cn1nc(-c2ccccc2)c2c(/C=C/c3ccc(F)cc3)onc2c1=O	–	–	–	> 100	–	–	> 100	> 100	–	–	–	–	–	–	–	–	–	–	–	–
C=CCN=C1NC(=O)C(CC(=O)Nc2cccc(Cl)c2)S1 (centres undefined)	> 100	> 100	> 100	> 100	> 100	> 100	> 100	> 100	–	–	–	–	–	–	–	–	–	–	–	–
O=C(/C=C/c1ccc(-c2ccccc2)cc1)c1ccccc1	49.3	45.7	> 100	> 100	33.6	> 100	> 100	49	–	–	–	–	–	–	–	–	–	–	–	–
O=C(N/N=C/c1ccc([N+](=O)[O-])cc1)c1ccccc1Nc1ccnc(C(F)(F)F)c1	74.3	43.7	37.9	73	–	32.4	> 100	42.3	15.5	14.7	35.1	10.5	11.6	19.9	45.6	7.89	11.2	26.3	19.1	–
Cc1cccc2c(=O)c3c(sc12)c(NCCCN)nc1ccccc13	–	5.64	3.46	2.71	3.65	3.29	2.93	3.18	–	1.69	3.17	1.88	1.76	1.11	2.57	1.39	1.75	1.47	1.74	1.85
N#Cc1c(N)c(C(=O)c2ccc3c(c2)OCCO3)n2c1CCCC2	> 100	8.03	–	> 100	> 100	> 53.4	> 100	> 100	> 100	0.362	2.07	1.79	–	2.28	> 100	7.42	2.69	6.13	3.32	4.06
C/C(COc1ccc2oc(-c3ccccc3)cc(=O)c2c1)=N\O	> 100	–	> 100	> 100	> 100	33.6	> 100	–	> 100	0.556	2.94	–	> 100	10.1	36.7	> 100	12.8	24	–	> 100
CC(=O)CCc1ccc(Oc2c3ccccc3nc3occc23)cc1	34.3	29.2	28	49.6	–	40.9	96.5	–	15.5	17.7	43.9	15.8	14.4	21.3	46.3	19.1	15.7	26.7	–	–
COC(=O)CCCCCOS(=O)(=O)c1ccc(C)cc1	–	> 100	> 100	> 100	> 100	> 100	> 100	> 100	–	–	–	–	–	–	–	–	–	–	–	–
CC[C@H](C)[C@H](NC(=O)c1ncccn1)C(=O)N(C)[C@H](C[C@@H](OC(C)=O)c1nc(C(=O)N[C@@H](Cc2ccccc2)C[C@H](C)C(=O)OC)cs1)C(C)C	> 25	17.6	> 25	> 25	–	16.7	> 25	4.77	5.45	0.393	1.08	2.7	2.38	0.924	> 25	4.07	2.11	2.81	0.848	–
Cc1ccccc1SC(/C=C/NNC1=NC(c2ccccc2)C(c2ccccc2)=NN1)c1ccccc1 (centres undefined)	52	64.2	> 100	42.8	45.3	57.7	> 100	> 100	–	–	–	–	–	–	–	–	–	–	–	–
COc1ccc(C2=NN(C(C)=O)c3nc4ccccc4nc3O2)cc1	–	–	> 100	> 100	> 100	> 100	> 100	–	–	–	–	–	–	–	–	–	–	–	–	–
Cn1c(=O)nc2n(-c3ccc(F)c(F)c3)c3ccccc3nc-2c1=O	> 100	> 100	20.1	37.2	55.3	32.4	53.8	22.5	–	–	–	–	–	–	–	–	–	–	–	–
Oc1ccc(O)c(-n2cccn2)c1	–	> 100	–	> 100	95.7	> 100	> 100	> 100	–	–	–	–	–	–	–	–	–	–	–	–
COc1nc2c(c(=O)n1C)CN(c1ccccc1)C(=O)CN2C	> 100	–	> 100	> 100	> 100	> 100	> 100	> 100	83.8	> 100	> 100	–	> 100	6.25	> 100	49.9	52.6	56.4	26.9	> 100
